Assay results reported in patent US10159672B2 (PARION SCIENCES, INC., priority 2011, dated 2018).

Assays:
Human plasma stability = assay type: in vitro ADME; conditions: over 4 hours
[1] = test system: Human Bronchial Epithelial; assay: Metabolism by human bronchial epithelial cells; assay type: in vitro ADME; conditions: apical or basolateral
Description: Airway epithelial cells have the capacity to metabolize drugs during the process of transepithelial absorption. Further, although less likely, it is possible that drugs can be metabolized on airway epithelial surfaces by specific ectoenzyme activities. Perhaps more likely as an ecto-surface event, compounds may be metabolized by the infected secretions that occupy the airway lumens of patients with lung disease, e.g. cystic fibrosis. Thus, a series of assays is performed to characterize the compound metabolism that results from the interaction of test compounds with human airway epithelia and/or human airway epithelial lumenal products.
In the first series of assays, the interaction of test compounds in KBR as an “ASL” stimulant are applied to the apical surface of human airway epithelial cells grown in the T-Col insert system. For most compounds, metabolism (generation of new species) is tested for using high performance liquid chromatography (HPLC) to resolve chemical species and the endogenous fluorescence properties of these compounds to estimate the relative quantities of test compound and novel metabolites. […] In instances where the fluorescence properties of the test molecule are not adequate for such characterizations, radiolabeled compounds are used for these assays. […]

[2] = Solubility and accelerated stability in citrate buffer; assay type: physicochemical; conditions: pH 4.2 citrate buffer with 2.8% NaCl
Description: • 1. 200 μL of 70% ACN (70% ACN, 30% H2O) was added into sample tubes which have threads in them. • 2. Tubes from Step 1 were vortexed for 30 seconds and sonicated for 1 minute to fully immerse the threads. • 3. The sample solutions were incubated for 4 hours at room temperature. • 4. Samples were vortexed again for 30 seconds. • 5. 75 μL, of the each sample solution (from step 4) was removed into 96-well UPLC plate with an additional 75 μL of mobile phase A (5 mM ammonium formate, 0.1% formic acid in H2O) added into each sample well. • 6. Analytical standards (10 mM, 1 mM, 100 µM, 10 µM, 1 µM, 100 nM, Buffer) were prepared identically to the thread solutions. • 7. Drug concentrations from all samples were analyzed by UPLC. Solubility and Stability Testing for Compound 15 (Formula I, aka I, aka P-1046, aka 1046): Procedure for Solubility and Stability Evaluation: • 1. Prepare 2.8% NaCl and 25 mM citrate buffer, pH of the solution 4.2. The osmolality of the solution is approximately 940 mOsM. • 2. Add appropriate amount of buffer solution to a test compound to make approximate concentration of 10 mg/mL. • 3. Vortex the solution for 15 seconds, sonicate for 30 seconds, again vortex for 60 seconds and visually observe the solution. • 4. Calculate final concentration of the solution by a spectrophotometer. • Remove a portion of solution and dilute it to 1:10 ratio. […]

[3] = test system: New Zealand White rabbits; assay: Acute non-GLP ocular toxicity / tolerability study; assay type: in vivo
Description: • An Acute Non-GLP Ocular Toxicity Study In New Zealand White Rabbits With P-1046
The purpose of this study was to evaluate the ocular tolerability and systemic exposure of P-1046, an inhibitor of the epithelial sodium channel (ENaC), when administered as a topical instillation to New Zealand white rabbits.
The test article (P-1046) were supplied as a light yellow white powder. The test articles were then prepared into dosing solutions for topical ocular application. Twenty-eight experimentally naïve male New Zealand White rabbits, approximately 4 months old at the outset of the study and weighing 2.6-3.1 kilograms at randomization were assigned to treatment groups as shown in the table below:
Animals were administered 50 μl of the test or control vehicle onto the globe of right eye and 50 μl of saline onto the globe of the left eye eight times (approximately one hour between each dose) in Groups 1 and 6 and four times (approximately two hours between each dose) in Group 7. Mortality and clinical observations were recorded daily. Body weights were recorded at randomization/selection and prior to sacrifice on Day 2. For blink rate assessment, eye blinks in the right eye only were counted for 3 minutes prior to treatment initiation and following all doses. Instances of wincing and pawing at the eyes during the 3-minute eye blink observation period were recorded as clinical observations. Food consumption was recorded daily. Eyes were scored according to Draize prior to treatment, following each dose and on Day 2 at approximately 24 hours post-dose. Blood for toxicokinetic evaluation was collected from animals in Group 2-7 at pre-dose, 30 minutes after the middle dose (4th dose in groups 3, 5, and 6; 2nd dose in groups 2, 4, and 7) and at 30, 60, 120 and 240 minutes following the final dose on Day 1. Blood samples for evaluation of serum chemistry parameters were collected prior to treatment initiation and at 120 and 240 min following the final dose. Urine samples were collected over a 4-hour period following the final dose. All animals were sacrificed following completion of study procedures on Day 2.

Rat Hepatocyte = assay: Rat hepatocyte metabolism; assay type: in vitro ADME; conditions: 24-hour incubation
[4] = 10 mM x 8 doses and 30 mM x 4 doses, topical ocular, rabbit

For `CN(C)C(=O)[C@H](CCCCNC(=N)N)NC(=O)[C@H](CCc1ccc(CCCCNC(=N)NC(=O)c2nc(Cl)c(N)nc2N)cc1)N(C)C` [Compound I, 3,5-diamino-6-chloro-N-(N-(4-(4-((S)-3-(dimethylamino)-4-((S)-1-(dimethylamino)-6-guanidino-1-oxohexan-2-ylamino)-4-oxobutyl)phenyl)butyl)carbamimidoyl)pyrazine-2-carboxamide], the “Human Plasma Stability” value (Human plasma stability) was “No metabolism detected”, the “Metabolism by Human Bronchial Epithelial” value [1] was “No metabolites detected” and the “Stability (HPLC), degradation” value ([2]; 10 days at 50° C.) was “No degradation”. For the same compound, the solubility ([2]; aqueous buffer, thermodynamic from solid, highest concentration tested) was at least 8800 µg/mL, the “Appearance of eyes on Day 2” value ([3]; 10 mM group) was “appeared normal” and the Average blink rate [3, 4] was “only slight increases at some time points, similarly to vehicle treated animals”. For the same compound, the “Cumulative Draize scores (right eye)” value [3, 4] was “only slight increases in Draize scoring which are not greater than those observed for vehicle treated animals”, the “Post-dose conjunctival redness, severity and incidence” value ([3]; 10 and 30 mM) was “comparable to the vehicle controls” and the Stinging on instillation ([3]; 10 and 30 mM) was “do not cause stinging”. The Ocular tolerability ([3]; 10 and 30 mM formulations) was “well tolerated” and the “Rat Hepatocyte Metabolism” value (Rat Hepatocyte) was “No evidence of significant metabolism”.
